Data: patent US8148422B2, “Sulfonamides as TRPM8 modulators” (Janssen Pharmaceutica, NV, priority 2008, dated 2012)

Biological target: T1, canine TRPM8 (Canis lupus familiaris, UniProt Q1A7N1)
T1 construct: expressed in transfected cells
Assay: In vitro canine TRPM8 functional assay (Ca2+-sensitive fluorescent dye, FLIPR or FDSS, icilin challenge)
Assay type: cell-based
Conditions: HEK293 cells stably expressing canine TRPM8; for inhibition at 0.2 µM: 0.2 μM compound, icilin challenge; for IC50: icilin at approx. 80% maximal response, eight-point dose-response, single determinations unless otherwise noted, read-out: IC50
Method: The functional activity of compounds of the formula (I) was determined by measuring changes in intracellular calcium concentration using a Ca^2+-sensitive fluorescent dye. The changes in fluorescent signal were monitored by a fluorescence plate reader, either a FLIPR™ (Molecular Devices) or FDSS (Hamamatsu).
At 24 hrs prior to assay, HEK293 cells stably expressing canine TRPM8 were seeded in culture medium in black wall, clear-base poly-D-lysine coated 384-well plates (BD Biosciences, NJ, USA) and grown overnight in 5% CO2 at 37° C. On assay day, growth media was removed and cells were loaded with Calcium 3 Dye (Molecular Devices) for 35 min at 37° C., under 5% CO2 and then for 25 min at room temperature and atmosphere. Subsequently, cells were tested for agonist-induced increases in intracellular Ca^2+ levels using FLIPR™ or FDSS. Cells were challenged with a compound of the Formula (I) (at varying concentrations) and intracellular Ca^2+ was measured for 5 min prior to the addition of icilin to all wells to achieve a final concentration that produces approximately an 80% maximal response. EC50 or IC50 values for compounds of the present invention were determined from eight-point dose-response studies. Curves were generated using the average of quadruplicate wells for each data point.

T1 sequence (Q1A7N1 1-1104): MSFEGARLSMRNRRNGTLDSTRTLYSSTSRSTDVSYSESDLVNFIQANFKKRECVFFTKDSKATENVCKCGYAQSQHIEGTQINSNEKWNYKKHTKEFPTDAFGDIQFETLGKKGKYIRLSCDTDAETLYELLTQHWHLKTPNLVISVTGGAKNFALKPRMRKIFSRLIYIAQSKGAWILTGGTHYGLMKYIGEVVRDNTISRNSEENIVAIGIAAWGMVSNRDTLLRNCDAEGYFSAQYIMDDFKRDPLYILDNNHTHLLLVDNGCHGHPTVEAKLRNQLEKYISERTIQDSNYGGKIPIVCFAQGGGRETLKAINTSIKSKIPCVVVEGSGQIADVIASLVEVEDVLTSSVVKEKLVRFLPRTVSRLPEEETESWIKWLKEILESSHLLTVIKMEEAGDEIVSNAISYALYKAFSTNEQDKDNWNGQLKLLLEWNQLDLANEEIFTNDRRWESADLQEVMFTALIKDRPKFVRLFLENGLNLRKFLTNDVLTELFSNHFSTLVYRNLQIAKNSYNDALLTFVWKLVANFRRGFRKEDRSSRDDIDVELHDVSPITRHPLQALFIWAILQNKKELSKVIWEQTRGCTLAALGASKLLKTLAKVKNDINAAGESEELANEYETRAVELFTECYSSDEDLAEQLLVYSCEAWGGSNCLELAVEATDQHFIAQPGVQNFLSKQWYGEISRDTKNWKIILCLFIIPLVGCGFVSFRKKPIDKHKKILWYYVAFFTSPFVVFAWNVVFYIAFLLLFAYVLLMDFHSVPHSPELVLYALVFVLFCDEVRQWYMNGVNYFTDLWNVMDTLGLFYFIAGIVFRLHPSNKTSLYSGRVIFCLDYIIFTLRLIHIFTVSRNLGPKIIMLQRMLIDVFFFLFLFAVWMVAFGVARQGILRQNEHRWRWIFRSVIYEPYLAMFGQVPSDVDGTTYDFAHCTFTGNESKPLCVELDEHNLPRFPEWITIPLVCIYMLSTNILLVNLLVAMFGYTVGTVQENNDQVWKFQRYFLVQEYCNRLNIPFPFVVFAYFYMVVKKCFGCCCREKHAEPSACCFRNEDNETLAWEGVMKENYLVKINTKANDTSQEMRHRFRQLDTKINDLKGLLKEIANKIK

Row | Structure (SMILES) | inhibition at 0.2 µM [%] | IC50 [µM]
1 | CCCN(CCC)CCS(=O)(=O)N(Cc1ccc(OC(F)(F)F)cc1)c1cc2ccccc2s1 [Cpd 1, N-(Benzo[b]thiophen-2-yl)-N-(4-trifluoromethoxy-benzyl)-2-(di-propylamino)ethylsulfonamide] | 78 | 0.114
2 | O=S(=O)(CCN1CCCCC1)N(Cc1ccc(OC(F)(F)F)cc1)c1cc2ccccc2s1 [Cpd 2, N-(Benzo[b]thiophen-2-yl)-N-(4-trifluoromethoxy-benzyl)-2-(piperidin-1-yl)ethylsulfonamide] | 92 | 0.033
3 | O=S(=O)(CCN1CCCCC1)N(Cc1ccc(OC(F)(F)F)cc1)c1sc2ccccc2c1Cl [Cpd 3, N-(3-Chlorobenzo[b]thiophen-2-yl)-N-(4-trifluoromethoxy-benzyl)-2-(piperidin-1-yl)ethylsulfonamide] | 97 | 0.03
4 | CCCN(CCC)CCS(=O)(=O)N(Cc1ccc(OC(F)(F)F)cc1)c1sc2ccccc2c1Cl [Cpd 4, N-(3-Chlorobenzo[b]thiophen-2-yl)-N-(4-trifluoromethoxy-benzyl)-2-(di-propylamino)ethylsulfonamide] | 98 | 0.024
5 | CCCN(CCC)CCS(=O)(=O)N(Cc1ccc(OC(F)(F)F)cc1)c1sc2ccccc2c1Br [Cpd 5, N-(3-Bromobenzo[b]thiophen-2-yl)-N-(4-trifluoromethoxy-benzyl)-2-(di-propylamino)ethylsulfonamide] | 101 | 0.022
6 | CCCN(CCC)CCS(=O)(=O)N(Cc1ccc(OC(F)(F)F)cc1)c1sc2ccccc2c1C [Cpd 6, N-(3-Methylbenzo[b]thiophen-2-yl)-N-(4-trifluoromethoxy-benzyl)-2-(di-propylamino)ethylsulfonamide] | 99 | 0.009
7 | CCCN(C)CCS(=O)(=O)N(Cc1ccc(OC(F)(F)F)cc1)c1sc2ccccc2c1C [Cpd 7, N-(3-Methylbenzo[b]thiophen-2-yl)-N-(4-trifluoromethoxy-benzyl)-2-(methyl-propylamino)ethylsulfonamide] | 99 | 0.029
8 | Cc1c(N(Cc2ccc(OC(F)(F)F)cc2)S(=O)(=O)CCN(C)C(C)C)sc2ccccc12 [Cpd 8, N-(3-Methylbenzo[b]thiophen-2-yl)-N-(4-trifluoromethoxy-benzyl)-2-(methyl-isopropylamino)ethylsulfonamide] | 94 | 0.05
9 | CCN(CC)CCS(=O)(=O)N(Cc1ccc(OC(F)(F)F)cc1)c1sc2ccccc2c1C [Cpd 9, N-(3-Methylbenzo[b]thiophen-2-yl)-N-(4-trifluoromethoxy-benzyl)-2-(diethylamino)ethylsulfonamide] | 101 | 0.019
10 | Cc1c(N(Cc2ccc(OC(F)(F)F)cc2)S(=O)(=O)CCN(C)CCO)sc2ccccc12 [Cpd 10, N-(3-Methylbenzo[b]thiophen-2-yl)-N-(4-trifluoromethoxy-benzyl)-2-(methyl-2-hydroxyethylamino)ethylsulfonamide] | 98 | 0.029
11 | Cc1c(N(Cc2ccc(OC(F)(F)F)cc2)S(=O)(=O)CCN(C)CC(C)C)sc2ccccc12 [Cpd 11, N-(3-Methylbenzo[b]thiophen-2-yl)-N-(4-trifluoromethoxy-benzyl)-2-(methyl-isobutylamino)ethylsulfonamide] | 100 | 0.022
12 | CCCCN(C)CCS(=O)(=O)N(Cc1ccc(OC(F)(F)F)cc1)c1sc2ccccc2c1C [Cpd 12, N-(3-Methylbenzo[b]thiophen-2-yl)-N-(4-trifluoromethoxy-benzyl)-2-(methyl-butylamino)ethylsulfonamide] | 96 | 0.043
13 | Cc1c(N(Cc2ccc(OC(F)(F)F)cc2)S(=O)(=O)CCNCCC(F)(F)F)sc2ccccc12 [Cpd 13, N-(3-Methylbenzo[b]thiophen-2-yl)-N-(4-trifluoromethoxy-benzyl)-2-(3,3,3-trifluoropropylamino)ethylsulfonamide] | 72 | 0.074
14 | CCCCN(CCCC)CCS(=O)(=O)N(Cc1ccc(OC(F)(F)F)cc1)c1sc2ccccc2c1C [Cpd 15, N-(3-Methylbenzo[b]thiophen-2-yl)-N-(4-trifluoromethoxy-benzyl)-2-(dibutylamino)ethylsulfonamide] | 100 | 0.022
15 | Cc1c(N(Cc2ccc(OC(F)(F)F)cc2)S(=O)(=O)CCN(C)CCc2ccccc2)sc2ccccc12 [Cpd 17, N-(3-Methylbenzo[b]thiophen-2-yl)-N-(4-trifluoromethoxy-benzyl)-2-(methyl-2-phenylethylamino)ethylsulfonamide] | 98 | 0.022
16 | Cc1c(N(Cc2ccc(OC(F)(F)F)cc2)S(=O)(=O)CCN2CCCCC2)sc2ccccc12 [Cpd 18, N-(3-Methylbenzo[b]thiophen-2-yl)-N-(4-trifluoromethoxy-benzyl)-2-(piperidin-1-yl)ethylsulfonamide] | 99 | 0.026
17 | Cc1c(N(Cc2ccc(OC(F)(F)F)cc2)S(=O)(=O)CCN2CCC(C)CC2)sc2ccccc12 [Cpd 19, N-(3-Methylbenzo[b]thiophen-2-yl)-N-(4-trifluoromethoxy-benzyl)-2-(4-methylpiperidin-1-yl)ethylsulfonamide] | 99 | 0.034
18 | Cc1c(N(Cc2ccc(OC(F)(F)F)cc2)S(=O)(=O)CCN2CCC(O)CC2)sc2ccccc12 [Cpd 20, N-(3-Methylbenzo[b]thiophen-2-yl)-N-(4-trifluoromethoxy-benzyl)-2-(4-hydroxypiperidin-1-yl)ethylsulfonamide] | 99 | 0.025
19 | Cc1c(N(Cc2ccc(OC(F)(F)F)cc2)S(=O)(=O)CCN2CC(C)CC(C)C2)sc2ccccc12 (centres unmarked) [Cpd 21, N-(3-Methylbenzo[b]thiophen-2-yl)-N-(4-trifluoromethoxy-benzyl)-2-(3,5-dimethylpiperidin-1-yl)ethylsulfonamide] | 100 | 0.052
20 | Cc1c(N(Cc2ccc(OC(F)(F)F)cc2)S(=O)(=O)CCN2[C@H](C)CCC[C@@H]2C)sc2ccccc12 [Cpd 22, N-(3-Methylbenzo[b]thiophen-2-yl)-N-(4-trifluoromethoxy-benzyl)-2-(cis-2,6-dimethylpiperidin-1-yl)ethylsulfonamide] | 99 | 0.013
21 | Cc1c(N(Cc2ccc(OC(F)(F)F)cc2)S(=O)(=O)CCN2CCC(CO)CC2)sc2ccccc12 [Cpd 23, N-(3-Methylbenzo[b]thiophen-2-yl)-N-(4-trifluoromethoxy-benzyl)-2-(4-hydroxymethylpiperidin-1-yl)ethylsulfonamide] | 97 | 0.044
22 | Cc1c(N(Cc2ccc(OC(F)(F)F)cc2)S(=O)(=O)CCN2CCCC(C(F)(F)F)C2)sc2ccccc12 (centres unmarked) [Cpd 24, N-(3-Methylbenzo[b]thiophen-2-yl)-N-(4-trifluoromethoxy-benzyl)-2-(3-trifluoromethylpiperidin-1-yl)ethylsulfonamide] | 99 | 0.027
23 | Cc1c(N(Cc2ccc(OC(F)(F)F)cc2)S(=O)(=O)CCN2CCNCC2)sc2ccccc12 [Cpd 26, N-(3-Methylbenzo[b]thiophen-2-yl)-N-(4-trifluoromethoxy-benzyl)-2-(piperazin-1-yl)ethylsulfonamide] | 23 | 
24 | Cc1c(N(Cc2ccc(OC(F)(F)F)cc2)S(=O)(=O)CCN2CCNC(=O)C2)sc2ccccc12 [Cpd 27, N-(3-Methylbenzo[b]thiophen-2-yl)-N-(4-trifluoromethoxy-benzyl)-2-(3-oxopiperazin-1-yl)ethylsulfonamide] | 101 | 0.02
25 | Cc1c(N(Cc2ccc(OC(F)(F)F)cc2)S(=O)(=O)CCN2CCN(C)CC2)sc2ccccc12 [Cpd 28, N-(3-Methylbenzo[b]thiophen-2-yl)-N-(4-trifluoromethoxy-benzyl)-2-(4-methylpiperazin-1-yl)ethylsulfonamide] | 25 | 
26 | CC(=O)N1CCN(CCS(=O)(=O)N(Cc2ccc(OC(F)(F)F)cc2)c2sc3ccccc3c2C)CC1 [Cpd 29, N-(3-Methylbenzo[b]thiophen-2-yl)-N-(4-trifluoromethoxy-benzyl)-2-(4-acetylpiperazin-1-yl)ethylsulfonamide] | 101 | 0.012
27 | Cc1c(N(Cc2ccc(OC(F)(F)F)cc2)S(=O)(=O)CCN2CCN(c3ccccc3)CC2)sc2ccccc12 [Cpd 30, N-(3-Methylbenzo[b]thiophen-2-yl)-N-(4-trifluoromethoxy-benzyl)-2-(4-phenylpiperazin-1-yl)ethylsulfonamide] | 96 | 0.033
28 | Cc1c(N(Cc2ccc(OC(F)(F)F)cc2)S(=O)(=O)CCN2CCNC(=O)CC2)sc2ccccc12 [Cpd 31, N-(3-Methylbenzo[b]thiophen-2-yl)-N-(4-trifluoromethoxy-benzyl)-2-(5-oxohomopiperazin-1-yl)ethylsulfonamide] | 99 | 0.027
29 | Cc1c(N(Cc2ccc(OC(F)(F)F)cc2)S(=O)(=O)CCN2CCOCC2)sc2ccccc12 [Cpd 32, N-(3-Methylbenzo[b]thiophen-2-yl)-N-(4-trifluoromethoxy-benzyl)-2-(morpholin-4-yl)ethylsulfonamide] | 99 | 0.012
